In US20100267561A1, “HERBICIDAL PYRIDAZINONE DERIVATIVES” (priority 2007, published 2010):
Where two headings read alike, the source gives them in different places.

How the values were obtained:
Type in all cases: in vivo
rice (Oryza sativa) = test: Test B flooded paddy test plant response; conditions: Oryza sativa, read-out: Plant response rating, Rice
Method in brief: (§1)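 Paddy-water application to 2-leaf plants in pots held under 3 cm of flooding; response is a 0–100 visual control rating against controls after 13 to 15 days, and a dash marks a missing result.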

[1] = test system: umbrella sedge (Cyperus difformis); test: Test B flooded paddy test plant response; conditions: Cyperus difformis, read-out: Plant response rating, Sedge, Umbrella
Method in brief: as §1

[2] = test system: ducksalad (Heteranthera limosa); test: Test B flooded paddy test plant response; conditions: Heteranthera limosa, read-out: Plant response rating, Ducksalad
Method in brief: as §1

[3] = test system: barnyardgrass (Echinochloa crus-galli); test: Test B flooded paddy test plant response; conditions: Echinochloa crus-galli, read-out: Plant response rating, Barnyardgrass
Method in brief: as §1

corn (Zea mays) = test: Test A pre-/postemergence plant response; conditions: Zea mays, 240 h; for Corn plant response rating (crop injury, 0 = no effect, 100 = complete kill) at 31 g/ha: 31 g ai/ha; for Corn plant response rating (crop injury, 0 = no effect, 100 = complete kill) at 125 g/ha: 125 g ai/ha
Method in brief: (§2)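 Scores reflect visual plant injury relative to untreated controls on a 0–100 scale, recorded approximately 10 days after simultaneous preemergence soil spraying and postemergence spraying of one- to two-leaf seedlings grown in loam–sand.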

[4] = test system: pigweed (Amaranthus retroflexus); test: Test A pre-/postemergence plant response; conditions: Amaranthus retroflexus, 240 h, read-out: Plant response rating, Pigweed; for pest or weed control at 31 g/ha: 31 g ai/ha; for pest or weed control at 125 g/ha: 125 g ai/ha
Method in brief: as §2

[5] = test system: wheat (Triticum aestivum); test: Test A pre-/postemergence plant response; conditions: Triticum aestivum, 240 h, read-out: Plant response rating, Wheat; for plant injury at 31 g/ha: 31 g ai/ha; for plant injury at 125 g/ha: 125 g ai/ha
Method in brief: as §2

[6] = test system: large crabgrass (Digitaria sanguinalis); test: Test A pre-/postemergence plant response; conditions: Digitaria sanguinalis, 240 h, read-out: Plant response rating, Crabgrass, Large; for pest or weed control at 31 g/ha: 31 g ai/ha; for pest or weed control at 125 g/ha: 125 g ai/ha
Method in brief: as §2

[7] = test system: barnyardgrass (Echinochloa crus-galli); test: Test A pre-/postemergence plant response; conditions: Echinochloa crus-galli, 240 h, read-out: Plant response rating, Barnyardgrass; for pest or weed control at 31 g/ha: 31 g ai/ha; for pest or weed control at 125 g/ha: 125 g ai/ha
Method in brief: as §2

[8] = test system: canarygrass (Phalaris minor); test: Test B postemergence plant response; conditions: for Plant response rating, Canarygrass: Postemergence
Method in brief: (§3)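 Following treatment of plants 2 to 18 cm high after emergence, pots were held under glass for 13 to 15 days; efficacy was then graded visually, 100 denoting complete control and a dash no test result.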

[9] = test system: windgrass (Apera spica-venti); test: Test B postemergence plant response; conditions: for Windgrass plant response rating: postemergence, 0-100 scale; for Plant response rating, Windgrass: Postemergence
Method in brief: as §3

[10] = test system: chickweed (Stellaria media); test: Test B postemergence plant response; conditions: for Plant response rating, Chickweed: Postemergence
Method in brief: as §3

[11] = test system: winter barley (Hordeum vulgare); test: Test B postemergence plant response; conditions: for Plant response rating, Barley: Postemergence, scale 0 to 100, 0 no effect, 100 complete control
Method in brief: as §3

[12] = Flood (flooded paddy test), 62 g ai/ha, scale 0 to 100, 0 no effect, 100 complete control
[13] = Flood (flooded paddy test), 125 g ai/ha, scale 0 to 100, 0 no effect, 100 complete control
[14] = Flood (flooded paddy test), 250 g ai/ha, scale 0 to 100, 0 no effect, 100 complete control
[15] = Flood, 31 g ai/ha, scale 0 to 100
[16] = post-emergence, Postemergence, 0 to 100 scale (0 no effect, 100 complete control)
[17] = post-emergence, Postemergence, 0 to 100 scale, 0 no effect, 100 complete control
[18] = pre-emergence, Preemergence, 0 to 100 scale, 0 is no effect, 100 is complete control
[19] = pre-emergence, Preemergence, 0 to 100 scale (0 no effect, 100 complete control)
[20] = 8 g ai/ha, postemergence, 0-100 scale
[21] = 62 g ai/ha, scale 0 to 100, 0 no effect, 100 complete control

`Cc1cc(-c2ccc(Br)cc2)nn1-c1c(OC(=O)C2CC2)cnn(C(=O)C2CC2)c1=O` [Compound 80, 5-[3-(4-bromophenyl)-5-methyl-1H-pyrazol-1-yl]-1-(cyclopropylcarbonyl)-1,6-dihydro-6-oxo-4-pyridazinyl cyclopropanecarboxylate] was tested, and the plant injury at 62 g/ha (rice (Oryza sativa); [12]) was 0%, the plant injury at 125 g/ha (rice (Oryza sativa); [13]) was 0% and the plant injury at 250 g/ha (rice (Oryza sativa); [14]) was 0%. The plant injury at 31 g/ha (rice (Oryza sativa); [15]) was 0%, the pest or weed control at 62 g/ha [1, 12] was 0% and the pest or weed control at 125 g/ha [1, 13] was 0%. The pest or weed control at 250 g/ha [1, 14] was 0%, the pest or weed control at 31 g/ha [1, 15] was 0% and the pest or weed control at 62 g/ha [2, 12] was 0%. It also gave a pest or weed control at 125 g/ha [2, 13] of 0%, a pest or weed control at 250 g/ha [2, 14] of 0% and a pest or weed control at 31 g/ha [2, 15] of 0%. For the same compound, the pest or weed control at 62 g/ha [3, 12] was 0%, the pest or weed control at 125 g/ha [3, 13] was 0% and the pest or weed control at 250 g/ha [3, 14] was 0%. It also gave a pest or weed control at 31 g/ha [3, 15] of 0%, a Corn plant response rating (crop injury, 0 = no effect, 100 = complete kill) at 31 g/ha (corn (Zea mays); [16]) of 60% and a Corn plant response rating (crop injury, 0 = no effect, 100 = complete kill) at 125 g/ha (corn (Zea mays); [17]) of 100%. It also gave a Corn plant response rating (crop injury, 0 = no effect, 100 = complete kill) at 31 g/ha (corn (Zea mays); [18]) of 40%, a Corn plant response rating (crop injury, 0 = no effect, 100 = complete kill) at 125 g/ha (corn (Zea mays); [19]) of 60% and a pest or weed control at 31 g/ha [4, 16] of 0%. It also gave a pest or weed control at 125 g/ha [4, 17] of 0%, a pest or weed control at 31 g/ha [4, 18] of 0% and a pest or weed control at 125 g/ha [4, 19] of 0%. For the same compound, the plant injury at 31 g/ha [5, 16] was 30%, the plant injury at 125 g/ha [5, 17] was 70% and the plant injury at 31 g/ha [5, 18] was 20%. The plant injury at 125 g/ha [5, 19] was 80%, the pest or weed control at 31 g/ha [6, 16] was 60% and the pest or weed control at 125 g/ha [6, 17] was 100%. For the same compound, the pest or weed control at 31 g/ha [6, 18] was 10%, the pest or weed control at 125 g/ha [6, 19] was 100% and the pest or weed control at 31 g/ha [7, 16] was 100%. The pest or weed control at 125 g/ha [7, 17] was 100%, the pest or weed control at 31 g/ha [7, 18] was 0% and the pest or weed control at 125 g/ha [7, 19] was 100%. The “Canarygrass plant response rating” value [8, 20] was 90, the “Plant response rating, Canarygrass” value ([8]; 16 g ai/ha, scale 0 to 100) was 98 and the “Plant response rating, Canarygrass” value ([8]; 31 g ai/ha, scale 0 to 100) was 100. For the same compound, the “Plant response rating, Canarygrass” value [8, 21] was 100, the “Windgrass plant response rating” value ([9]; 8 g ai/ha) was 30 and the “Windgrass plant response rating” value ([9]; 16 g ai/ha) was 40. The “Plant response rating, Windgrass” value ([9]; 31 g ai/ha, scale 0 to 100) was 60, the “Plant response rating, Windgrass” value [9, 21] was 70 and the “Chickweed plant response rating” value [10, 20] was 0. The “Plant response rating, Chickweed” value ([10]; 16 g ai/ha, scale 0 to 100) was 0, the “Plant response rating, Chickweed” value ([10]; 31 g ai/ha, scale 0 to 100) was 0 and the “Plant response rating, Chickweed” value [10, 21] was 0. For the same compound, the “Barley plant response rating” value [11, 20] was 30, the “Plant response rating, Barley” value ([11]; 16 g ai/ha) was 60 and the “Plant response rating, Barley” value ([11]; 31 g ai/ha) was 95. The “Plant response rating, Barley” value ([11]; 62 g ai/ha) was 98.
